Patent US5157052A, “Method for inhibiting IgE production” (priority 1990, dated 1992)

Tests used:
IgE [1] = experiment: ED50 for inhibition of IgE calculated from the examples; format: in vivo, mouse; details: dose to achieve 50% inhibition of IgE
Procedure: From the data in the above examples, the effective dose of each prostaglandin to achieve 50% inhibition of IgE (ED50) was calculated.

IgE [2] = experiment: Serum IgE response induced by FF1-4D5 + H∂A1 anti-IgD antibodies (ELISA, Assay A / Assay F); format: in vivo, mouse (Balb/c female); details: 20 μg days 3 and 4
Procedure: Mouse hybridoma cells expressing either FF1-4D5 antibody or H∂A1 antibody are thawed, established in culture, and incubated in mice as ascite tumors. FF1-4D5 antibody is a mouse IgG2a monoclonal antibody of the b allotype that binds the Fd fragment of the ∂ chain of the a allotype IgD which activates β cells through antigen internalization and processing, promoting cognate interactions with antigen-specific T cells (D. K. Goroff et al., J. Immunol. 136: 2382 (1986)). H∂A1 antibody is a mouse IgG2b of the b allotype that binds the Fc fragment of the ∂ chain of the a allotype IgD which activates β cells through crosslinking IgD (I. M. Zitron and B. L. Clevinger, J. Exp. Med. 152: 1135 (1980)). Each antibody is purified from their respective ascites tumor fluid. […] Serum from the injected mice is recovered and the mean concentration of IgE determined.
Serum levels of IgE are determined and IgE levels are shown to be inhibited in a dose dependent manner.
ELISA (enzyme linked immunosorbant assay) measurements of IgE are as follows. About 5 μg of B1E3 antibody in 100 μl borate buffered saline (pH8.5) is added to wells of a NuncImmulon II 96 well plate (DiRuscio & Assoc., St. Louis, Mo.) at 37° C. for 90 minutes. The non-bound antibody is removed by flicking the plate. Unreacted sites on the plastic plate are blocked by adding about 200 μl of a 2% solution of newborn bovine serum (NBS) in PBS at 37° C. for 60 minutes. The standard IgE (or an unknown murine serum sample) is diluted to between about 4 ng/ml-256 ng/ml in Hanks-HS (20 mM Hepes, 2% NBS in Hanks Balanced Salt Solution, Gibco, Grand Island, N.Y.) or to 1/200 to 1/1000 in Hanks-HS respectively. 100 μl of standard (or unknown dilutions) are added in triplicate to the wells of the plate and allowed to absorb to B1E3 antibody at about 37° C. for 2-4 hours. The solution is removed by flicking the plate and each well is washed with about 0.5 ml 0.05% Tween 20-PBS 5 times. About 100 μl of biotinylated R1E4, called the primary antibody, diluted to 200 ng/ml is added to all wells and incubated at about 4° C. overnight. The solution is removed by flicking the plate and washed 5 times as described above. The developing reagent (Avidin and biotin-horse radish peroxidase) is incubated in 2% NBS in PBS at ambient temperature for 30 minutes, according to manufacturer's specifications (Vector Laboratories, Burlingame, Calif.). About 100 μl of developing reagent is added to each well and incubated at ambient temperature for 30 minutes. Colorimetric substrate for the developing reagent (ABTS peroxidase substrate system, KPL, Gaithersburg, Md.) is prepared by mixing equal volumes of solutions A and B and incubating at ambient temperature for 60 minutes. The developing reagent solution is removed by flicking the plate and washed 5 times as described above. About 100 μl of the mixture of substrates is added to each well and incubated at ambient temperature for 60 minutes. The optical density of each well is determined on a BioTek ELISA reader (Biotek Instruments, Inc., Burlington, Vermont) and the absorbance data transferred electronically to a DEC VAX mainframe computer. A standard curve is fitted to the IgE standard optical densities using straight line, linear regression statistical fits. IgE in the unknown serum samples is determined by comparing the optical density of the unknown to the standard curve and multiplying that number by the dilution of serum used in the assay.
Stimulation of a transient serum IgE response in mouse with two monoclonal antibodies directed against IgD is carried out as follows.
Mouse hybridoma cells expressing either FF1-4D5 antibody or H∂Al antibody are thawed, established in culture, and incubated in CB6 F1 female mice as an ascites tumor and each immunoglobulin is purified from the ascites fluid as described above. […]

IgG3 = experiment: Serum IgG3 in anti-IgD stimulated mice (two site sandwich ELISA, Assay D); format: in vivo, mouse (Balb/c female); details: 20 μg days 3 and 4
[3] = Diarrheal effects in rats; details: rat, in vivo, po
Procedure: Briefly, adult Charles River male rats weighing 210-230 g were individually housed and fasted with water available ad libitum for 24 hours prior to the test. The animals (N=6-12) received logarithmically graded prostaglandin doses orally. Immediately after administration, the animals were returned to their cages, and diarrhea, if any, was assessed on an all or none basis for 8 hours after drug treatment. The ED50 and relative potency values were calculated by the logistic method of Berkson.

[4] = Table 12, day 8 (control 11398)

| Compound | ED50 IgE Inhibition (IgE [1]) | de novo IgE synthesis (IgE [2]; Example 25) | IgE ± SD (IgE [2]; Table 14, day 8 (control 6071)) | inhibition of IgG3 (IgG3; Example 25) | IgG3 ± SD (IgG3; Table 14, day 8 (control 1538)) | TD50 at 8 h [3] | de novo IgE synthesis (IgE [2]; Example 23) | IgE ± SD (IgE [2]; [4]) | inhibition of IgG3 (IgG3; Example 23) | IgG3 ± SD (IgG3; Table 12, day 8 (control 584)) |
| --- | --- | --- | --- | --- | --- | --- | --- | --- | --- | --- |
| CCCCC(C)(O)C/C=C/[C@H]1[C@H](O)CC(=O)[C@@H]1CCCC(C)(C)CCC(=O)OC (mixture of isomers) [(±) methyl 11α,16-dihydroxy-4,4,16-trimethyl-9-oxoprost-13E-en-1-oate] | 1.5 μg/mouse/TID | inhibit de novo IgE synthesis | < 800 ng/mL | not IgG1, IgG2a, IgG3 and IgM | 2103 ± 616 µg/mL | 0.185 mg/kg | – | – | – | – |
| CCCCC(C)(O)C/C=C/[C@H]1[C@H](O)CC(=O)[C@@H]1CCC1CC1CCC(=O)OC (relative stereo) [(±) methyl 2-[2-[3R-3α-hydroxy-2β-(4-hydroxy-4-methyl-1E-octenyl)-5-oxo-1α-cyclopentyl]ethyl]cyclopropanepropanoate] | 1.0 μg/mouse/TID | – | – | – | – | – | inhibit de novo IgE synthesis | 3034 ± 878 ng/mL | not IgG1, IgG2a or IgG3 | 901 ± 213 µg/mL |
| CCCCC(C)(O)C/C=C/[C@H]1[C@H](O)CC(=O)[C@@H]1CC1CC1CCCC(=O)OC (relative stereo) [(±) methyl 2-[2-[3R-3α-hydroxy-2β-(4-hydroxy-4-methyl-1E-octenyl)-5-oxo-1α-cyclopentyl]methyl]cyclopropanebutanoate] | 9.0 μg/mouse/TID | – | – | – | – | – | inhibit de novo IgE synthesis | 2750 ± 318 ng/mL | not IgG1, IgG2a or IgG3 | 520 ± 39 µg/mL |
